Reference: US10519177B2, “Heterocyclic compounds and uses thereof” (Plexxikon Inc., priority 2013, dated 2019)

Key:
[1] = test system: MV-4-11 cells; assay: Oncology cell growth assay MV-4-11 (CellTiter Glo); format: cell-based; settings: Homo sapiens, MV4-11, 72 h; MV-4-11, 3d growth; read-out: Cell activity (IC50 μM) MV-4-11 3d-Growth
Procedure, shortened: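 Growth read by CellTiter Glo luminescence after 72 h compound treatment of MLL-AF4-bearing MV-4-11 cells (3000/well). Titration: 8 points, 1:3 steps, maximum 10 μM, 0.2% DMSO final. Data normalized to DMSO wells, four-parameter fit gives pIC50.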

[2] = molecular target: BRD4-BD12 (1-477) (Homo sapiens (Human), UniProt O60885); assay: Alphascreen binding assay BRD4-BD12; settings: BRD4(1 2) H4; read-out: Biochemical activity (IC50 μM) BRD4(1 2) H4
Procedure, shortened: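 In this competition format, compounds displace a biotinylated tetra-acetyl H4 peptide from E. coli-expressed human BRD4 bromodomain constructs captured on nickel chelate beads. The reaction runs at pH 7.5 with 2 mM DTT and detergent for 1 h at room temperature before a 30 min bead step.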

[3] = test system: bromodomain; assay: at least one of the bromodomain cell assays of Example 57; format: cell-based; settings: at least one of the bromodomain cell assays described in Example 57; read-out: IC50 in at least one of the bromodomain cell assays

Row | SMILES | IC50 [1] [µM] | IC50 [2] [µM] | IC50 [3] [nM]
1 | Cc1noc(C)c1-c1cnc2c(-c3ccc(NS(C)(=O)=O)cc3)cn(CC3(F)CCCCC3)c2c1 [P-0495, N-[4-[6-(3,5-dimethylisoxazol-4-yl)-1-[(1-fluorocyclohexyl)methyl]pyrrolo[3,2-b]pyridin-3-yl]phenyl]methanesulfonamide] | < 1 | < 1 | < 10000
2 | Cc1noc(C)c1-c1cnc2c(Br)c[nH]c2c1 [P-0263, 4-(3-bromo-1H-pyrrolo[3,2-b]pyridin-6-yl)-3,5-dimethyl-isoxazole] | – | < 1 | < 10000
3 | COC(=O)c1ccc(-c2cn(Cc3ccccc3C#N)c3cc(-c4c(C)noc4C)cnc23)cc1 [P-0922, methyl 4-[1-[(2-cyanophenyl)methyl]-6-(3,5-dimethylisoxazol-4-yl)pyrrolo[3,2-b]pyridin-3-yl]benzoate] | < 1 | < 1 | –
4 | CC[C@H](c1ccccn1)n1cc(-c2ccc(C(=O)OC)cc2)c2ncc(-c3c(C)noc3C)cc21 [P-0959, methyl 4-[6-(3,5-dimethylisoxazol-4-yl)-1-[(1R)-1-(2-pyridyl)propyl]pyrrolo[3,2-b]pyridin-3-yl]benzoate] | < 1 | < 1 | –
5 | Cc1noc(C)c1-c1cnc2c(-c3ccc(C4(C(=O)O)CC4)cc3)cn([C@H](c3ccccn3)C3CC3)c2c1 [P-1032, 1-[4-[1-[(S)-cyclopropyl(2-pyridyl)methyl]-6-(3,5-dimethylisoxazol-4-yl)pyrrolo[3,2-b]pyridin-3-yl]phenyl]cyclopropanecarboxylic acid] | < 1 | < 1 | –
6 | COC(=O)c1cc(-c2cn([C@@H](C)c3ccccn3)c3cc(-c4c(C)noc4C)cnc23)ccc1C [P-0998, methyl 5-[6-(3,5-dimethylisoxazol-4-yl)-1-[(1S)-1-(2-pyridyl)ethyl]pyrrolo[3,2-b]pyridin-3-yl]-2-methyl-benzoate] | < 1 | < 1 | –
7 | COc1ncc(-c2cn(C(c3ccccc3)c3ccccn3)c3cc(-c4c(C)noc4C)ccc23)cn1 (stereo not drawn) [P-1039, 4-[3-(2-methoxypyrimidin-5-yl)-1-[phenyl(2-pyridyl)methyl]indol-6-yl]-3,5-dimethyl-isoxazole] | < 1 | < 1 | –
8 | CC[C@H](c1ccccn1)n1cc(-c2ccc(C(=O)O)cc2)c2ncc(-c3c(C)noc3C)cc21 [P-0960, 4-[6-(3,5-dimethylisoxazol-4-yl)-1-[(1R)-1-(2-pyridyl)propyl]pyrrolo[3,2-b]pyridin-3-yl]benzoic acid] | < 1 | < 1 | –
9 | Cc1noc(C)c1-c1cnc2c(-c3cnn(C)c3)cn(CC3(C)CCOCC3)c2c1 [P-0945, 3,5-dimethyl-4-[3-(1-methylpyrazol-4-yl)-1-[(4-methyltetrahydropyran-4-yl)methyl]pyrrolo[3,2-b]pyridin-6-yl]isoxazole] | < 1 | < 1 | –
10 | CC[C@@H](c1ccccn1)n1cc(-c2ccc(C3(C(=O)O)CC3)cc2)c2ncc(-c3c(C)noc3C)cc21 [P-0969, 1-[4-[6-(3,5-dimethylisoxazol-4-yl)-1-[(1S)-1-(2-pyridyl)propyl]pyrrolo[3,2-b]pyridin-3-yl]phenyl]cyclopropanecarboxylic acid] | < 1 | < 1 | –
11 | COc1cccc(Cn2cc(-c3ccc(C(=O)O)cc3)c3ncc(-c4c(C)noc4C)cc32)n1 [P-0931, 4-[6-(3,5-dimethylisoxazol-4-yl)-1-[(6-methoxy-2-pyridyl)methyl]pyrrolo[3,2-b]pyridin-3-yl]benzoic acid] | < 1 | < 1 | –
12 | COC(=O)c1ccc(-c2cn(Cc3ccc(F)cn3)c3cc(-c4c(C)noc4C)cnc23)cc1 [P-0918, methyl 4-[6-(3,5-dimethylisoxazol-4-yl)-1-[(5-fluoro-2-pyridyl)methyl]pyrrolo[3,2-b]pyridin-3-yl]benzoate] | < 1 | < 1 | –
13 | Cc1noc(C)c1-c1ccc2c(I)cn(C(c3ccccc3)c3ccccn3)c2c1 (stereo not drawn) [P-0991, 4-[3-iodo-1-[phenyl(2-pyridyl)methyl]indol-6-yl]-3,5-dimethyl-isoxazole] | < 1 | < 1 | –
